# Data from EP0397025B1, “[2-(2-pyridyl)ethyl]-methylamine salts” (PRODOTTI FORMENTI S.r.l., priority 1989, dated 1990).
# Structures can show the parent of a compound that is named as a salt. Where two headings read alike, the source gives them in different places.
# Key:
# gastric mucosa = experiment: Effect on gastric erosions (Adami index); type: in vivo; conditions: for N^o GASTRIC EROSIONS / SEVERITY: Adami index
# Protocol: A comparison test between betahistine hydrochloride and betahistine fumarate was carried out, evaluating the toxicity (LD₅₀) and the effect on gastric erosions, at equimolar doses.
# Admnistration volume = 15 ml/kg Evaluation of the stomach conditions = 1h after administration according to Adami index.
# [1] = pH of the administered treatment; type: physicochemical; conditions: treatment as administered in the gastric erosion test
# [2] = Bioavailability test on rats; conditions: rat, in vivo
# Protocol: The AUCs, in the time 0-3 hours, for betahistine fumarate and betahistine dihydrochloride evidence no significant differences (8.2 vs 7.6 h.µg/ml, respectively).
# Solubility = type: physicochemical
# [3] = Partition coefficient octanol/buffer; type: physicochemical; conditions: for logD: octanol/buffer, pH 9, octanol/buffer pH = 9.0
# [4] = 20 mmoles/kg, administration volume 15 ml/kg, 1h after administration, dihydrochloride
# [5] = 20 mmoles/kg, administration volume 15 ml/kg, 1h after administration
compound,measurement,setting,value
"CNCCc1ccccn1 [BETAHISTINE DIHYDROCHLORIDE, betahistine dihydrochloride, reference compound]",N^o GASTRIC EROSIONS,gastric mucosa; [4],7.92±1.26
same,SEVERITY,gastric mucosa; [4],3.85±0.35
same,% ANIMALS WITH EROSIONS: serious erosions,gastric mucosa; [4],92.32% serious erosions
same,pH,[1]; dihydrochloride,BETAHISTINE DIHYDROCHLORIDE pH=1.6
same,AUC,[2],7600 ng·h/mL
same,bioavailability,[2],substantially the same bioavailability
"CNCCc1ccccn1 [BETAHISTINE FUMARATE, Betahistine Fumarate]",% ANIMALS WITH EROSIONS: diffused bleeding,gastric mucosa; [5],20%
same,% ANIMALS WITH EROSIONS: serious erosions,gastric mucosa; [5],10%
same,N^o GASTRIC EROSIONS,gastric mucosa; [5],0.3±0.3
same,SEVERITY,gastric mucosa; [5],0.6±0.31
same,effect on gastric erosions,"gastric mucosa; equimolar doses, compared with the hydrochloride",markedly improved
same,pH,[1],BETAHISTINE FUMARATE pH = 4.19
same,plasmatic curve peak after the administration,[2],15 min
same,AUC at 3 h,"[2]; rats, 0-3 hours, read-out: AUCs, in the time 0-3 hours",8200 ng·h/mL
same,Solubility in acetone,Solubility; acetone,poorly soluble
same,Solubility in acid aqueous solutions,Solubility; acid aqueous solutions,soluble
same,Solubility in chloroform,Solubility; chloroform,almost unsoluble
same,Solubility in ethanol,Solubility; ethanol,soluble
same,Solubility in methanol,Solubility; methanol,soluble
same,Solubility in water,Solubility; water,soluble
same,logD,[3]; read-out: Partition coefficient P (converted),-0.904
same,logD,[3]; read-out: logP,0.904
"CNCCc1ccccn1 [BETAHISTINE, [2-(2-Pyridyl)ethyl]-methylamine]",Partition coefficient P,[3]; octanol/buffer pH = 9.0,0.147
